Converted amounts (≈) assume the structure as drawn.
Experiment: physchem
Details: aqueous buffer, kinetic from dmso stock
Description: General procedure for kinetic solubility measurements. A polypropylene tube was charged with PBS solution (490 μL). To the buffer was added a 10 mM stock solution of compound (10 μL). The tube was vortexed and equilibrated on an end-over-end rotator for 15 min at rt. Aliquots (400 μL) were filtered through 0.45 μm syringe filters and diluted to 5.0 mL with absolute MeOH. Concentrations were determined by UV/VIS analysis.
The test compounds were prepared at concentrations of 10 mM and added to the buffer at room temperature such that cosolvent concentration was fixed at 2%.

SMILES	solubility kinetic at 15 min [µM]
COC1=CC(=O)C[C@@H](C)[C@]12Oc1c(Cl)c(OC)cc(OC)c1C2=O [compound 11, griseofulvin]	180 ± 13 (≈ 63.5 µg/mL)
COC(=O)Nc1nc2ccccc2[nH]1 [compound 10, carbendazim]	140 ± 13 (≈ 26.8 µg/mL)

Source: patent US9546144B2, “Bifunctional compounds” (University of Pittsburgh—of the Commonwealth System of …, priority 2011, dated 2017)
